Measured values reported in ChEMBL document CHEMBL4033706, “Synthesis of novel acyl selenoureido benzensulfonamides as carbonic anhydrase I, II, VII and IX inhibitors” (Bioorg Med Chem, 2017).
pKi: −log10 of the molar value.

Biological target: Carbonic anhydrase 9 (Homo sapiens, UniProt Q16790)
Description: Inhibition of recombinant human carbonic anhydrase-9 assessed as reduction in CO2 hydration preincubated for 15 mins followed by CO2 addition measured for 10 to 100 secs by stopped-flow assay

Compound | pKi
Cc1cccc(C(=O)NC(=[Se])Nc2cccc(S(N)(=O)=O)c2)c1 | 7.36
CC(=O)Oc1ccccc1C(=O)NC(=[Se])Nc1ccc(S(N)(=O)=O)cc1 | 7.87
NS(=O)(=O)c1ccc(CCNC(=[Se])NC(=O)c2ccc3c(c2)OCO3)cc1 | 6.98
NS(=O)(=O)c1ccccc1NC(=[Se])NC(=O)c1ccccc1 | 6.55
NS(=O)(=O)c1cccc(NC(=[Se])NC(=O)c2ccccc2)c1 | 6.43
Cc1cccc(C(=O)NC(=[Se])NCCc2ccc(S(N)(=O)=O)cc2)c1 | 6.84
NS(=O)(=O)c1ccc(NC(=[Se])NC(=O)c2ccccc2)cc1 | 8.34
CC(=O)Oc1ccccc1C(=O)NC(=[Se])Nc1cc(S(N)(=O)=O)ccc1O | 7.09
NS(=O)(=O)c1cccc(NC(=[Se])NC(=O)c2ccc(C(F)(F)F)cc2C(F)(F)F)c1 | 5.33
NS(=O)(=O)c1ccc(CCNC(=[Se])NC(=O)c2ccc(-c3ccccc3)cc2)cc1 | 5.31
Cc1cc(C(=O)NC(=[Se])Nc2cc(S(N)(=O)=O)ccc2O)ccc1Br | 8.24
NS(=O)(=O)c1ccc(NC(=[Se])NC(=O)c2cc(Br)cc(OC(F)(F)F)c2)cc1 | 8.46
NS(=O)(=O)c1ccc(CCNC(=[Se])NC(=O)c2ccccc2)cc1 | 8.14
NS(=O)(=O)c1ccc(O)c(NC(=[Se])NC(=O)c2ccc(-c3ccccc3)cc2)c1 | 7.16
CCCCCCCc1ccc(C(=O)NC(=[Se])Nc2ccc(S(N)(=O)=O)cc2)cc1 | 7.60
NS(=O)(=O)c1ccc(NC(=[Se])NC(=O)c2ccc3c(c2)OCO3)cc1 | 6.89
